Measured values published in PubChem BioAssay AID248 (DTP/NCI, 2004).
Several values for one entry are separate records, joined by “and”; a condition that tells them apart may be missing. Equal entries are not always repeated. Inconclusive results and toxic doses are left out.

Test system: L1210 leukemia ip in BDF1 mice, survival T/C
Test: NCI In Vivo Anticancer Drug Screen. Data for tumor model L1210 Leukemia (intraperitoneal) in B6D2F1 (BDF1) mice
Conditions: higher = longer survival
In short: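 Transplanted-tumor mice were given test agent; controls received vehicle only. Survival readings from the two groups were divided (treated over control).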

[1] = endpoint: mean survival time, dose: 100.0 mg/kg/injection, schedule: Q04DX003 (ip), vehicle: saline
[2] = endpoint: mean survival time, dose: 200.0 mg/kg/injection, schedule: Q04DX003 (ip), vehicle: saline
[3] = endpoint: mean survival time, dose: 400.0 mg/kg/injection, schedule: Q01DX009 (ip), vehicle: Klucel (hydroxypropylcellulose) (HPC)
[4] = endpoint: mean survival time, dose: 400.0 mg/kg/injection, schedule: Q01DX009 (ip), vehicle: saline
[5] = endpoint: mean survival time, dose: 100.0 mg/kg/injection, schedule: Q01DX001 (ip), vehicle: other
[6] = endpoint: mean survival time, dose: 200.0 mg/kg/injection, schedule: Q01DX001 (ip), vehicle: other
[7] = endpoint: mean survival time, dose: 400.0 mg/kg/injection, schedule: Q01DX001 (ip), vehicle: other

SMILES: NCCc1ccc(O)c(O)c1
- T/C (endpoint: mean survival time, dose: 6.25 mg/kg/injection, schedule: Q03HX024 (ip), vehicle: saline): 101 % of control
- T/C (endpoint: mean survival time, dose: 12.5 mg/kg/injection, schedule: Q03HX004 (ip), vehicle: saline): 113 % of control
- T/C (endpoint: mean survival time, dose: 12.5 mg/kg/injection, schedule: Q03HX024 (ip), vehicle: saline): 87 % of control
- T/C (endpoint: mean survival time, dose: 25.0 mg/kg/injection, schedule: Q01DX001 (ip), vehicle: saline): 104 % of control
- T/C (endpoint: mean survival time, dose: 25.0 mg/kg/injection, schedule: Q01DX009 (ip), vehicle: Klucel (hydroxypropylcellulose) (HPC)): 105 % of control
- T/C (endpoint: mean survival time, dose: 25.0 mg/kg/injection, schedule: Q03HX004 (ip), vehicle: saline): 113 % of control
- T/C (endpoint: mean survival time, dose: 25.0 mg/kg/injection, schedule: Q03HX024 (ip), vehicle: saline): 106 % of control
- T/C (endpoint: mean survival time, dose: 25.0 mg/kg/injection, schedule: Q04DX003 (ip), vehicle: saline): 94 % of control
- T/C (endpoint: mean survival time, dose: 50.0 mg/kg/injection, schedule: Q01DX001 (ip), vehicle: saline): 100 % of control
- T/C (endpoint: mean survival time, dose: 50.0 mg/kg/injection, schedule: Q01DX009 (ip), vehicle: Klucel (hydroxypropylcellulose) (HPC)): 114 % of control
- T/C (endpoint: mean survival time, dose: 50.0 mg/kg/injection, schedule: Q01DX009 (ip), vehicle: saline): 118 % of control and 119 % of control
- T/C (endpoint: mean survival time, dose: 50.0 mg/kg/injection, schedule: Q03HX004 (ip), vehicle: saline): 124 % of control
- T/C (endpoint: mean survival time, dose: 50.0 mg/kg/injection, schedule: Q03HX024 (ip), vehicle: saline): 115 % of control
- T/C (endpoint: mean survival time, dose: 50.0 mg/kg/injection, schedule: Q04DX003 (ip), vehicle: saline): 94 % of control
- T/C (endpoint: mean survival time, dose: 100.0 mg/kg/injection, schedule: Q01DX001 (ip), vehicle: saline): 108 % of control
- T/C (endpoint: mean survival time, dose: 100.0 mg/kg/injection, schedule: Q03HX024 (ip), vehicle: saline): 115 % of control
- T/C [1]: 97 % of control
- T/C (endpoint: mean survival time, dose: 150.0 mg/kg/injection, schedule: Q01DX009 (ip), vehicle: saline): 104 % of control
- T/C (endpoint: mean survival time, dose: 200.0 mg/kg/injection, schedule: Q01DX001 (ip), vehicle: saline): 99 % of control
- T/C [2]: 101 % of control
- T/C (endpoint: mean survival time, dose: 400.0 mg/kg/injection, schedule: Q01DX001 (ip), vehicle: saline): 115 % of control
- T/C [3]: 152 % of control
- T/C [4]: 123 % of control
- T/C (endpoint: mean survival time, dose: 400.0 mg/kg/injection, schedule: Q04DX003 (ip), vehicle: saline): 94 % of control
- T/C (endpoint: mean survival time, dose: 600.0 mg/kg/injection, schedule: Q01DX009 (ip), vehicle: saline): 103 % of control
- T/C (endpoint: mean survival time, dose: 800.0 mg/kg/injection, schedule: Q01DX009 (ip), vehicle: saline): 122 % of control
- T/C (endpoint: mean survival time, dose: 800.0 mg/kg/injection, schedule: Q04HX003 (ip), vehicle: saline): 108 % of control
- T/C (endpoint: mean survival time, dose: 1600.0 mg/kg/injection, schedule: Q04HX003 (ip), vehicle: saline): 104 % of control
- T/C (endpoint: median survival time, dose: 20.0 mg/kg/injection, schedule: Q04HX036 (ip), vehicle: saline): 92 % of control
- T/C (endpoint: median survival time, dose: 40.0 mg/kg/injection, schedule: Q01DX009 (sc), vehicle: saline): 98 % of control
- T/C (endpoint: median survival time, dose: 40.0 mg/kg/injection, schedule: Q04HX020 (ip), vehicle: saline): 114 % of control
- T/C (endpoint: median survival time, dose: 40.0 mg/kg/injection, schedule: Q04HX036 (ip), vehicle: saline): 106 % of control
- T/C (endpoint: median survival time, dose: 40.0 mg/kg/injection, schedule: Q11DX017 (ip), vehicle: saline): 104 % of control
- T/C (endpoint: median survival time, dose: 40.0 mg/kg/injection, schedule: Q12HX018 (ip), vehicle: saline): 114 % of control
- T/C (endpoint: median survival time, dose: 80.0 mg/kg/injection, schedule: Q01DX009 (ip), vehicle: saline): 118 % of control
- T/C (endpoint: median survival time, dose: 80.0 mg/kg/injection, schedule: Q01DX009 (oral), vehicle: saline): 97 % of control
- T/C (endpoint: median survival time, dose: 80.0 mg/kg/injection, schedule: Q01DX009 (sc), vehicle: saline): 104 % of control
- T/C (endpoint: median survival time, dose: 80.0 mg/kg/injection, schedule: Q02DX005 (ip), vehicle: saline): 111 % of control
- T/C (endpoint: median survival time, dose: 80.0 mg/kg/injection, schedule: Q04HX020 (ip), vehicle: saline): 123 % of control
- T/C (endpoint: median survival time, dose: 80.0 mg/kg/injection, schedule: Q04HX036 (ip), vehicle: saline): 122 % of control
- T/C (endpoint: median survival time, dose: 80.0 mg/kg/injection, schedule: Q11DX017 (ip), vehicle: saline): 120 % of control
- T/C (endpoint: median survival time, dose: 80.0 mg/kg/injection, schedule: Q12HX010 (ip), vehicle: saline): 121 % of control
- T/C (endpoint: median survival time, dose: 160.0 mg/kg/injection, schedule: Q01DX009 (oral), vehicle: saline): 104 % of control
- T/C (endpoint: median survival time, dose: 160.0 mg/kg/injection, schedule: Q01DX009 (sc), vehicle: saline): 96 % of control
- T/C (endpoint: median survival time, dose: 160.0 mg/kg/injection, schedule: Q04HX036 (ip), vehicle: saline): 108 % of control
- T/C (endpoint: median survival time, dose: 320.0 mg/kg/injection, schedule: Q01DX009 (oral), vehicle: saline): 105 % of control
- T/C (endpoint: median survival time, dose: 320.0 mg/kg/injection, schedule: Q01DX009 (sc), vehicle: saline): 103 % of control
- T/C (endpoint: median survival time, dose: 320.0 mg/kg/injection, schedule: Q02DX005 (ip), vehicle: saline): 122 % of control
- T/C (endpoint: median survival time, dose: 640.0 mg/kg/injection, schedule: Q01DX009 (oral), vehicle: saline): 106 % of control
- T/C (endpoint: median survival time, dose: 640.0 mg/kg/injection, schedule: Q01DX009 (sc), vehicle: saline): 103 % of control
- T/C (endpoint: median survival time, dose: 640.0 mg/kg/injection, schedule: Q02DX005 (ip), vehicle: saline): 124 % of control

SMILES: Cc1cc(O)c(N=Nc2ccc(C(=O)O)cc2)cc1C
- T/C (endpoint: mean survival time, dose: 25.0 mg/kg/injection, schedule: Q04DX003 (ip), vehicle: carboxymethylcellulose (CMC)): 108 % of control
- T/C (endpoint: mean survival time, dose: 50.0 mg/kg/injection, schedule: Q04DX003 (ip), vehicle: carboxymethylcellulose (CMC)): 103 % of control
- T/C [5]: 102 % of control
- T/C (endpoint: mean survival time, dose: 100.0 mg/kg/injection, schedule: Q04DX003 (ip), vehicle: carboxymethylcellulose (CMC)): 101 % of control
- T/C [6]: 96 % of control
- T/C (endpoint: mean survival time, dose: 200.0 mg/kg/injection, schedule: Q04DX003 (ip), vehicle: carboxymethylcellulose (CMC)): 101 % of control
- T/C [7]: 93 % of control
- T/C (endpoint: mean survival time, dose: 400.0 mg/kg/injection, schedule: Q04DX003 (ip), vehicle: carboxymethylcellulose (CMC)): 95 % of control

SMILES: O=C(CC(O)(C(F)(F)F)C(F)(F)F)c1cccc2ccccc12
- T/C (endpoint: mean survival time, dose: 100.0 mg/kg/injection, schedule: Q04DX003 (ip), vehicle: Klucel (hydroxypropylcellulose) (HPC)): 97 % of control
- T/C (endpoint: mean survival time, dose: 200.0 mg/kg/injection, schedule: Q04DX003 (ip), vehicle: Klucel (hydroxypropylcellulose) (HPC)): 90 % of control
- T/C (endpoint: mean survival time, dose: 400.0 mg/kg/injection, schedule: Q04DX003 (ip), vehicle: Klucel (hydroxypropylcellulose) (HPC)): 90 % of control

SMILES: CC(=O)O[C@]1(C(C)=O)CC[C@H]2[C@@H]3C[C@H](F)C4=CC(=O)CC[C@]4(C)[C@H]3CC[C@@]21C
- T/C (endpoint: mean survival time, dose: 100.0 mg/kg/injection, schedule: Q01DX009 (ip), vehicle: Klucel (hydroxypropylcellulose) (HPC)): 98 % of control
- T/C (endpoint: mean survival time, dose: 100.0 mg/kg/injection, schedule: Q04DX003 (ip), vehicle: other): 93 % of control
- T/C (endpoint: mean survival time, dose: 200.0 mg/kg/injection, schedule: Q01DX009 (ip), vehicle: Klucel (hydroxypropylcellulose) (HPC)): 97 % of control
- T/C (endpoint: mean survival time, dose: 200.0 mg/kg/injection, schedule: Q04DX003 (ip), vehicle: other): 98 % of control
- T/C [3]: 101 % of control
- T/C (endpoint: mean survival time, dose: 400.0 mg/kg/injection, schedule: Q04DX003 (ip), vehicle: other): 100 % of control

SMILES: CCCC(C)CC1CCCCC1=O (configuration not stated)
- T/C (endpoint: mean survival time, dose: 75.0 mg/kg/injection, schedule: Q04DX003 (ip), vehicle: saline): 97 % of control
- T/C (endpoint: mean survival time, dose: 150.0 mg/kg/injection, schedule: Q04DX003 (ip), vehicle: saline): 96 % of control
- T/C (endpoint: mean survival time, dose: 300.0 mg/kg/injection, schedule: Q04DX003 (ip), vehicle: saline): 103 % of control

SMILES: CC1=CC(=O)C(C(C)C)C1 (configuration not stated)
- T/C [5]: 98 % of control
- T/C [6]: 109 % of control
- T/C [7]: 95 % of control

SMILES: CC1(COCCOCC2(C)CO2)CO1 (configuration not stated)
- T/C [1]: 97 % of control
- T/C (endpoint: mean survival time, dose: 180.0 mg/kg/injection, schedule: Q01DX009 (ip), vehicle: saline): 106 % of control and 108 % of control
- T/C [2]: 103 % of control
- T/C (endpoint: mean survival time, dose: 266.0 mg/kg/injection, schedule: Q01DX009 (ip), vehicle: saline): 112 % of control
- T/C [4]: 150 % of control

SMILES: Cc1ccc(C)c(CNc2cc(=O)[nH]c(=O)[nH]2)c1
- T/C (endpoint: mean survival time, dose: 100.0 mg/kg/injection, schedule: Q01DX001 (ip), vehicle: Klucel (hydroxypropylcellulose) (HPC)): 97 % of control
- T/C (endpoint: mean survival time, dose: 200.0 mg/kg/injection, schedule: Q01DX001 (ip), vehicle: Klucel (hydroxypropylcellulose) (HPC)): 101 % of control
- T/C (endpoint: mean survival time, dose: 400.0 mg/kg/injection, schedule: Q01DX001 (ip), vehicle: Klucel (hydroxypropylcellulose) (HPC)): 97 % of control
